The term Ki denotes the equilibrium dissociation constant of an inhibitor or competing ligand from its target.

We go through 10 compounds from patent US8138189B2, “Substituted benzene compounds as modulators of the glucocorticoid receptor” (Hoffman-La Roche Inc., priority 2009, dated 2012).

The experiment addresses T1, full length human recombinant glucocorticoid receptor (Homo sapiens, UniProt P04150).
T1 construct: partially purified full length human recombinant glucocorticoid receptor; purchased Panvera/Invitrogen PV4302
T1 sequence (P04150 1-777): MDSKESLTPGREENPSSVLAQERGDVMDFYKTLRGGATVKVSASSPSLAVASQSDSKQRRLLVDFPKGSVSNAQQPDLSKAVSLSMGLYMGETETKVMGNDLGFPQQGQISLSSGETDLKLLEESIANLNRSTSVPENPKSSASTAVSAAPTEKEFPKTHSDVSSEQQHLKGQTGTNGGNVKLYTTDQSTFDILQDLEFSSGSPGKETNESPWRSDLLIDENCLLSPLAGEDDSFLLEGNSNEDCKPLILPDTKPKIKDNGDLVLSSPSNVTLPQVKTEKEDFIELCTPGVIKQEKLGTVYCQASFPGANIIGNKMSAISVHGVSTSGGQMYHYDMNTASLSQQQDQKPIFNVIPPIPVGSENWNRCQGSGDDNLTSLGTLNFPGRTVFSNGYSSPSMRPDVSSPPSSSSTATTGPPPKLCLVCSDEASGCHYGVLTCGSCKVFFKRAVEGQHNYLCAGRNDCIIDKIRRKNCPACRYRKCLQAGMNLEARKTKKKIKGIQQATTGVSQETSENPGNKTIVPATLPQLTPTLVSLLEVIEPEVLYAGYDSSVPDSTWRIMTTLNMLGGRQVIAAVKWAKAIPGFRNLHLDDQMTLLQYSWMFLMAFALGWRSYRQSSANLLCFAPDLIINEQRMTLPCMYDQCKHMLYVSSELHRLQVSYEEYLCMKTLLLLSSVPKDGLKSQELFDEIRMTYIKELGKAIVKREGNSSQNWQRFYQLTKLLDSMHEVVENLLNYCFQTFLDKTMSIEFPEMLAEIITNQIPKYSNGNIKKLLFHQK
The experiment in a line: Glucocorticoid Receptor Binding Assay (fluorescence polarization competitor assay, Fluormone GS Far Red tracer). The method in brief: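 Partially purified full-length recombinant human GR with a stabilizing coactivator peptide was incubated with Fluormone GS Far Red tracer and serially diluted compound for 3 h at 22 °C in the dark, pH 7.4. Fluorescence polarization was read at 610-660 nm. IC50 came from sigmoidal fitting, and Ki from Cheng-Prusoff.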
(Fluorescence polarisation rises when a labelled molecule tumbles more slowly, as on binding a larger partner.)
Consider `C[C@H](c1ccc(Oc2ccc(F)c(OCC(=O)O)c2)cc1Cl)[C@@](O)(c1ccc(=O)n(C)c1)C(F)(F)F` (stereo in doubt) [Example 162, (5-{3-Chloro-4-[3,3,3-trifluoro-2-hydroxy-1-methyl-2-(1-methyl-6-oxo-1,6-dihydro-pyridin-3-yl)-propyl]-phenoxy}-2-fluoro-phenoxy)-acetic acid], for which the Ki worked out at 0.6 nM.

On to `C[C@H](c1ccc(Oc2cc(C(F)(F)F)c(C(=O)O)cn2)cc1Cl)[C@@](O)(c1ccc(=O)n(C)c1)C(F)(F)F` (stereo in doubt) [Example 164, 6-{3-Chloro-4-[3,3,3-trifluoro-2-hydroxy-1-methyl-2-(1-methyl-6-oxo-1,6-dihydro-pyridin-3-yl)-propyl]-phenoxy}-4-trifluoromethyl-nicotinic acid], for which the Ki amounted to 40.2 nM.

Take `C[C@@H](c1ccc(-c2ccc(C(=O)O)c(Cl)c2)cc1Cl)[C@](O)(c1ccc(=O)n(C)c1)C(F)(F)F` (stereo in doubt) [Example 169, 3,3′-Dichloro-4′-[3,3,3-trifluoro-2-hydroxy-1-methyl-2-(1-methyl-6-oxo-1,6-dihydro-pyridin-3-yl)-propyl]-biphenyl-4-carboxylic acid]: the Ki is 18.1 nM.

`C[C@@H](c1ccc(-c2ccc(Cl)c(C(=O)O)c2)cc1Cl)[C@](O)(c1ccc(=O)n(C)c1)C(F)(F)F` (stereo in doubt) [Example 170, 4,3′-Dichloro-4′-[3,3,3-trifluoro-2-hydroxy-1-methyl-2-(1-methyl-6-oxo-1,6-dihydro-pyridin-3-yl)-propyl]-biphenyl-3-carboxylic acid]: the Ki came to 49.7 nM.

Take `CCOC(=O)c1cc(-c2ccc([C@H](C)[C@](O)(c3ccc(=O)n(C)c3)C(F)(F)F)c(Cl)c2)ccc1F` (stereo in doubt) [Example 172, 3′-Chloro-4-fluoro-4′-[3,3,3-trifluoro-2-hydroxy-1-methyl-2-(1-methyl-6-oxo-1,6-dihydro-pyridin-3-yl)-propyl]-biphenyl-3-carboxylic acid ethyl ester]: the Ki stood at 3.8 nM.

On to `COC(=O)c1ccc(-c2ccc([C@H](C)[C@](O)(c3ccc(=O)n(C)c3)C(F)(F)F)c(Cl)c2)cc1OC` (stereo in doubt) [Example 173, 3′-Chloro-3-methoxy-4′-[3,3,3-trifluoro-2-hydroxy-1-methyl-2-(1-methyl-6-oxo-1,6-dihydro-pyridin-3-yl)-propyl]-biphenyl-4-carboxylic acid methyl ester], for which the Ki is 7.3 nM.

With `COc1cc(-c2ccc([C@H](C)[C@](O)(c3ccc(=O)n(C)c3)C(F)(F)F)c(Cl)c2)ccc1C(=O)O` (stereo in doubt) [Example 174, 3′-Chloro-3-methoxy-4′-[3,3,3-trifluoro-2-hydroxy-1-methyl-2-(1-methyl-6-oxo-1,6-dihydro-pyridin-3-yl)-propyl]-biphenyl-4-carboxylic acid], the inhibitory constant (Ki) stood at 97.3 nM.

With `COC(=O)c1ccc(-c2ccc([C@H](C)[C@](O)(c3ccc(OC)nc3)C(F)(F)F)c(Cl)c2)cc1F` (stereo in doubt) [Example 176, 3′-Chloro-3-fluoro-4′-[3,3,3-trifluoro-2-hydroxy-2-(6-methoxy-pyridin-3-yl)-1-methyl-propyl]-biphenyl-4-carboxylic acid methyl ester], the Ki was 93.5 nM.

As for `COC(=O)c1ccc(-c2ccc([C@H](C)[C@](O)(c3ccc(OC)nc3)C(F)(F)F)c(Cl)c2)cc1Cl` (stereo in doubt) [Example 178, 3,3′-Dichloro-4′-[3,3,3-trifluoro-2-hydroxy-2-(6-methoxy-pyridin-3-yl)-1-methyl-propyl]-biphenyl-4-carboxylic acid methyl ester], the Ki amounted to 72.1 nM.

`CCOC(=O)c1cc(-c2ccc([C@H](C)[C@](O)(c3ccc(OC)nc3)C(F)(F)F)c(Cl)c2)ccc1Cl` (stereo in doubt) [Example 180, 4,3′-Dichloro-4′-[3,3,3-trifluoro-2-hydroxy-2-(6-methoxy-pyridin-3-yl)-1-methyl-propyl]-biphenyl-3-carboxylic acid ethyl ester]: the Ki was determined as 38.4 nM.
